Common to all, as to assay: kinase profiling panel
Holding throughout (format): biochemical

For one test, the target named is PKC alpha (Homo sapiens, UniProt P17252). Conditions: read-out: % Activity Remaining. An excerpt:
(§1) Protein kinase profiling against a Dundee panel of 140 protein kinases was undertaken at the International Centre for Protein Kinase Profiling. The result for each kinase was presented as a mean kinase activity of the reaction taken in triplicate relative to a control sample treated with DMSO. Assay conditions and abbreviations are available at http://www.kinase-screen.mrc.ac.uk.

In the next test the target is T1, TAK1 (Homo sapiens, UniProt O43318).
T1 sequence (O43318 1-303 limits assumed): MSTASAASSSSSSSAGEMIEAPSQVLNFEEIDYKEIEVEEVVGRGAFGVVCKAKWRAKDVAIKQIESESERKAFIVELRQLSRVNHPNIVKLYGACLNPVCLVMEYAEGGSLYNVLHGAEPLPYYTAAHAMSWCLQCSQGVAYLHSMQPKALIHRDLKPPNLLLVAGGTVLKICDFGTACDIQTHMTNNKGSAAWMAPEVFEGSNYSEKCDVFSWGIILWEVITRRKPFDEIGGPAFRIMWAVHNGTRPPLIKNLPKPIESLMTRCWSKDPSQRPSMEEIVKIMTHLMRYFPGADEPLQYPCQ
The conditions noted are these: read-out: % Activity Remaining.
Source text: as §1

The next test deals with CK2 (Homo sapiens, UniProt P68400). Conditions: read-out: % Activity Remaining.
Source text: as §1

The target of a further test is PAK4 (Homo sapiens, UniProt O96013). Conditions: read-out: % Activity Remaining.
Source text: as §1

A further test concerns the target T2, IKK epsilon (Homo sapiens, UniProt Q14164).
T2 sequence (Q14164 1-716): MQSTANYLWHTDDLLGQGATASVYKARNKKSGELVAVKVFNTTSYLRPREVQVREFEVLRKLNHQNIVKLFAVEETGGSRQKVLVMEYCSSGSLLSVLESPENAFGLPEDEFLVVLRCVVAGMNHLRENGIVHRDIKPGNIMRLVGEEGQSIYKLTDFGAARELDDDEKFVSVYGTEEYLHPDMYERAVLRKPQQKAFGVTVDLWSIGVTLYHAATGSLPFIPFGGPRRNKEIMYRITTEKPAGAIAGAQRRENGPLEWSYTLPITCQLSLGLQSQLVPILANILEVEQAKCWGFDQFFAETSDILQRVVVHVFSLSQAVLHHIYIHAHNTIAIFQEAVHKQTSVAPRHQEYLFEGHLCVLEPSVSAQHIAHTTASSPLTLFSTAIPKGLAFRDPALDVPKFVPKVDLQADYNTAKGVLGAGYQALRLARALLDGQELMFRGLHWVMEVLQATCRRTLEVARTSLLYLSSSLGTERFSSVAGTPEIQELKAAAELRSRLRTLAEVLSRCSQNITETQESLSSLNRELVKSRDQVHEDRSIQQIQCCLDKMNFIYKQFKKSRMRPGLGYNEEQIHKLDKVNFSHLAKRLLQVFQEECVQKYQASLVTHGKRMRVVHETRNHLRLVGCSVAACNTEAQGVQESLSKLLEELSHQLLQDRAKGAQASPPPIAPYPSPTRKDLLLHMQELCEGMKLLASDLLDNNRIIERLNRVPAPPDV
The conditions noted are these: read-out: % Activity Remaining.
Source text: as §1

A further test concerns the target PKC gamma (Homo sapiens, UniProt P05129). The conditions noted are these: read-out: % Activity Remaining.
Source text: as §1

In a further test the target is STK33 (Homo sapiens, UniProt Q9BYT3).
Source text: as §1

The next test has as its target PLK1 (Homo sapiens, UniProt P53350). Conditions: read-out: % Activity Remaining.
Source text: as §1

The target of another test is T3, DDR2 (Homo sapiens, UniProt Q16832).
T3 sequence (Q16832 22-855): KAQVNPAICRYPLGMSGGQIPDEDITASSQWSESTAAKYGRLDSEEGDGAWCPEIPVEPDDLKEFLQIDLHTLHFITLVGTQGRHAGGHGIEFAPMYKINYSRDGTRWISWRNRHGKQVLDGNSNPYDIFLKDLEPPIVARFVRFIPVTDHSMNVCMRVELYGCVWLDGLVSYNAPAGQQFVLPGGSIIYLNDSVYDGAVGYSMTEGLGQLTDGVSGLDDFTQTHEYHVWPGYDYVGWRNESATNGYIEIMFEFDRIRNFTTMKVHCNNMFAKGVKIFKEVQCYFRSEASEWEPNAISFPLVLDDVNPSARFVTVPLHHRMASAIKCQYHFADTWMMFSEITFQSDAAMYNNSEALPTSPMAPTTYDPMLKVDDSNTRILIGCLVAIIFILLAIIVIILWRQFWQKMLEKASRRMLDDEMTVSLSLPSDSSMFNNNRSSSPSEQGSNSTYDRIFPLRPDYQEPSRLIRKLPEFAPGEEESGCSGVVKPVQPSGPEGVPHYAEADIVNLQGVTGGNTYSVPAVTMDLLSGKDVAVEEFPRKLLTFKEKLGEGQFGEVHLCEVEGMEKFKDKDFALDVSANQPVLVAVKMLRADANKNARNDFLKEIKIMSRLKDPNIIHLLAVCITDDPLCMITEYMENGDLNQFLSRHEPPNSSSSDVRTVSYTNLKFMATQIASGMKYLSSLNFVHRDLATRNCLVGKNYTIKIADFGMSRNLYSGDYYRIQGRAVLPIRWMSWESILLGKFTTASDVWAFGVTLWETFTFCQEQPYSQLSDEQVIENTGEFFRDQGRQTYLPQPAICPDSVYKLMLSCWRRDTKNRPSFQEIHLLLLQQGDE
The conditions noted are these: read-out: % Activity Remaining.
Source text: as §1

The target of a further test is HIPK3 (Homo sapiens, UniProt Q9H422). Conditions: read-out: % Activity Remaining.
Source text: as §1

What is called remaining activity is the signal under treatment as a percentage of the control signal.

Like-named read-outs stand apart in the source and are kept apart here.

Sequence of PLK1 (P53350 whole entry): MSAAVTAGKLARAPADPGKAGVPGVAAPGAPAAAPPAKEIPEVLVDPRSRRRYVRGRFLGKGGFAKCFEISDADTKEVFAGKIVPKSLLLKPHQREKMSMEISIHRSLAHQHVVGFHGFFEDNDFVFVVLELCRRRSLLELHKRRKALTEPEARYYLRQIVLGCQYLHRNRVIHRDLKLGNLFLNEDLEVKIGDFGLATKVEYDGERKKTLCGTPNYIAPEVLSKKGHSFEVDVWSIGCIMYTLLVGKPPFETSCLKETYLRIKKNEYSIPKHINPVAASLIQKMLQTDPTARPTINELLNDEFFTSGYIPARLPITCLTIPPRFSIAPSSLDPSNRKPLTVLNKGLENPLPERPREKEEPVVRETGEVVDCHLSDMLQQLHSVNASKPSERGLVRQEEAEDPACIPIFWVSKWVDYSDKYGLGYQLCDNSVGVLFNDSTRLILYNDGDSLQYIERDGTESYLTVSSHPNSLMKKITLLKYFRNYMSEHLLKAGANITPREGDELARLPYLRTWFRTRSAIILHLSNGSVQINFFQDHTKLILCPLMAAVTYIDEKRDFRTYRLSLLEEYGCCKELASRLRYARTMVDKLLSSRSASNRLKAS
Sequence of CK2 (P68400 whole entry): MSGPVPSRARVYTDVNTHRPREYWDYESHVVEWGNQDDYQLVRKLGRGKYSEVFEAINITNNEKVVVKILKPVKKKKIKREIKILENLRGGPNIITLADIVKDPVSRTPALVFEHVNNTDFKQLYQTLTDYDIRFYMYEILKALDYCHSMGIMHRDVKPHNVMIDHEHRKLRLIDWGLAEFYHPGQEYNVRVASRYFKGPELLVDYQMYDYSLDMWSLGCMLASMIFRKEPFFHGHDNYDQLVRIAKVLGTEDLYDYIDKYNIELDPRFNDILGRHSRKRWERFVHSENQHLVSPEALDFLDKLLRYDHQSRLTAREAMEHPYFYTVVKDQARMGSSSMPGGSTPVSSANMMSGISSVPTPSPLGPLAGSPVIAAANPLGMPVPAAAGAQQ
Sequence of STK33 (Q9BYT3 whole entry): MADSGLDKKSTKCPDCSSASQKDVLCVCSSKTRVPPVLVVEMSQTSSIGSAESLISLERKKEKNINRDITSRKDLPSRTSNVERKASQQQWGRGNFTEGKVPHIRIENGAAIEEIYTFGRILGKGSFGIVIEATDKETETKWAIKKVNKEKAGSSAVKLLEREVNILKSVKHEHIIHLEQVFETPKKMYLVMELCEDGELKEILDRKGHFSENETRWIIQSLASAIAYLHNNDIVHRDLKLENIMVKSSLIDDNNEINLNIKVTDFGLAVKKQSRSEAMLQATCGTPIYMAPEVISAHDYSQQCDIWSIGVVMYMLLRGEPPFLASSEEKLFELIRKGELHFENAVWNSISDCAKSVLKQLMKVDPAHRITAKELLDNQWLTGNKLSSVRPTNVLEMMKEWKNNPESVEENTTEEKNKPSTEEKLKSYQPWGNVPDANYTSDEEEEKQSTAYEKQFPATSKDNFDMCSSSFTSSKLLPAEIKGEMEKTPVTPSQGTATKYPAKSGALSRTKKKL
Sequence of HIPK3 (Q9H422 whole entry): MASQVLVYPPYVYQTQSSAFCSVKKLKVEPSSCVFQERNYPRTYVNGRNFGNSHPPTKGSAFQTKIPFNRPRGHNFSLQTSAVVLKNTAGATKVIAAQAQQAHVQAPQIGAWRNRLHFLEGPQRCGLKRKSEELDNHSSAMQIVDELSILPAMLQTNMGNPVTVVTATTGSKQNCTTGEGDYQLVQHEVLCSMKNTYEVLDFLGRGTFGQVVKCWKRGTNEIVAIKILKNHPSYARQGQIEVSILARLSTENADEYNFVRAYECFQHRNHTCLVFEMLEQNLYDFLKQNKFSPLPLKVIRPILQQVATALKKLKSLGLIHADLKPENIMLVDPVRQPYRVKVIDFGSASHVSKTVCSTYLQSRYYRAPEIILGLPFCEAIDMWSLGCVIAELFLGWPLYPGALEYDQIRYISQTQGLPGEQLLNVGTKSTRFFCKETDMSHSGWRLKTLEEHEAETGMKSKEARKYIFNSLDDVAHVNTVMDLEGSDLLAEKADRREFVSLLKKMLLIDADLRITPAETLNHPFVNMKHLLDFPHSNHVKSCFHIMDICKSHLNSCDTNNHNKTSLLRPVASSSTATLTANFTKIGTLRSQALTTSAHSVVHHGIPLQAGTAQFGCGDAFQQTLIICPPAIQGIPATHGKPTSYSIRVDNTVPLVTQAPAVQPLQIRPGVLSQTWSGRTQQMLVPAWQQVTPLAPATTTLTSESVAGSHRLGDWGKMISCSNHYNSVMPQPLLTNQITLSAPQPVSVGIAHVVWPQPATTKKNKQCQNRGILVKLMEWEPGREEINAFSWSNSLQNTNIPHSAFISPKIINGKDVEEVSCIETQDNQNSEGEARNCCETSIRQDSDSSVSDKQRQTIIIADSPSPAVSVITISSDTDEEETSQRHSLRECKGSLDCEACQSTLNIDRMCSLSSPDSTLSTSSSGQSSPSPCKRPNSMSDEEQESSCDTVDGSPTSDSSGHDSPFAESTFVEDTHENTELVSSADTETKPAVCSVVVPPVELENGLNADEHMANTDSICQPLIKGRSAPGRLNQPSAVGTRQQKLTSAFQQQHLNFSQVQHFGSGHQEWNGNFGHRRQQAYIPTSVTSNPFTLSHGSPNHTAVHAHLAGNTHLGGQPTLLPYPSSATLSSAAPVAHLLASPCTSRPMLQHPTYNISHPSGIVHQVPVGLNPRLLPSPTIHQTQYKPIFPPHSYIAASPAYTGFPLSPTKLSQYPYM
Sequence of PAK4 (O96013 whole entry): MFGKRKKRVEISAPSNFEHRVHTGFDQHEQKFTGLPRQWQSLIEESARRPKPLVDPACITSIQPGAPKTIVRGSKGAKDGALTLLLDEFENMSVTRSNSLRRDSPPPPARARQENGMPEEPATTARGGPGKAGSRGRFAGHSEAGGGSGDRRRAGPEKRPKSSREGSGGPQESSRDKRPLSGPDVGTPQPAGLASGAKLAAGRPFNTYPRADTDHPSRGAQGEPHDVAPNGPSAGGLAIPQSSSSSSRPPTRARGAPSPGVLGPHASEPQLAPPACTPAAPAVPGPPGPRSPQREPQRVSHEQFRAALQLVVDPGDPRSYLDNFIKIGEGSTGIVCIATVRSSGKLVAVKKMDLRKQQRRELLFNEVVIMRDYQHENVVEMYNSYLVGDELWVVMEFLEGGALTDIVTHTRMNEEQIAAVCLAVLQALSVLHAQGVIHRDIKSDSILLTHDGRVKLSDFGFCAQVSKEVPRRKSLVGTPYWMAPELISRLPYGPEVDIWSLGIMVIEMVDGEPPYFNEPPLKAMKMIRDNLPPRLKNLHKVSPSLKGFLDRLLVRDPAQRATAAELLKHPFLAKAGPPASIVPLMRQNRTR

In the case of `COc1ccc(Cl)c(S(=O)(=O)Nc2ccc(-c3nc(OC[C@H]4CNCCO4)c4c(C)n[nH]c4n3)cc2)c1` [290-R, reference compound], the remaining activity at 1 µM at PKC alpha came out at 113%; at TAK1, 101%; on CK2 (1 µM), 100%; at PAK4, 91%; at IKK epsilon, 34%; at PKC gamma it was 101%. In addition, the remaining activity at 1 µM worked out at 74% on STK33, 102% on PLK1, 80% at DDR2 and 109% on HIPK3.
Consider `Cc1ccc(F)c(S(=O)(=O)Nc2ccc(-c3nc(OC[C@H]4CNCCO4)c4cn[nH]c4n3)cc2)c1` [308-R, reference compound], for which the remaining activity at 1 µM on PKC alpha was found to be 135%; at TAK1 it was 74%; on CK2 it was 103%; at PAK4, 102%; at IKK epsilon, 26%; on PKC gamma it was 90%. Further, the remaining activity at 1 µM on STK33 amounted to 36%; on PLK1 it was 86%; at DDR2 it was 106%; on HIPK3, 44%.
Regarding `Cc1ccc(F)c(S(=O)(=O)Nc2ccc(-c3nc(OC[C@H]4CN(CCCCCCOCCOCCOCC(=O)N[C@H](C(=O)N5C[C@H](O)C[C@H]5C(=O)NCc5ccc(-c6scnc6C)cc5)C(C)(C)C)CCO4)c4cn[nH]c4n3)cc2)c1` [SGK3-PROTAC1], the remaining activity at 1 µM on PKC alpha (1 µM) came out at 121%; on TAK1 (1 µM) it was 108%; at CK2 (1 µM) it was 90%; on PAK4 (1 µM), 81%; at IKK epsilon (1 µM) it was 108%; at PKC gamma (1 µM) it was 103%. For the same molecule, the remaining activity at 1 µM at STK33 stood at 110%; on PLK1 (1 µM) it was 98%; on DDR2 (1 µM) it was 114%; at HIPK3 (1 µM) it was 111%.
As for `Cc1ccc(F)c(S(=O)(=O)Nc2ccc(-c3nc(OC[C@H]4CN(CCCCCCOCCOCCOCC(=O)N[C@H](C(=O)N5C[C@@H](O)C[C@H]5C(=O)NCc5ccc(-c6scnc6C)cc5)C(C)(C)C)CCO4)c4cn[nH]c4n3)cc2)c1` [cisSGK3-PROTAC1], the remaining activity at 1 µM on PKC alpha (1 µM) worked out at 118%; at TAK1 (1 µM), 107%; at CK2 (1 µM), 96%; on PAK4 (1 µM), 113%; on IKK epsilon (1 µM), 99%; at PKC gamma (1 µM), 100%. Besides, the remaining activity at 1 µM turned out to be 109% on STK33, 98% at PLK1 (1 µM), 134% at DDR2 (1 µM) and 105% on HIPK3 (1 µM).

For the origin of these results see paper PMC6757289, “Design and Characterization of SGK3-PROTAC1, an Isoform Specific SGK3 Kinase PROTAC Degrader” (ACS Chemical Biology, 2019).
